According to US9359345B2, “Thiazole derivatives as inhibitors of Bruton's tyrosine kinase” (Hoffmann-La Roche Inc., priority 2012, dated 2016):

Target: Bruton's Tyrosine Kinase (BTK), inactivated state (Homo sapiens (Human), UniProt Q06187)
Test: Bruton's Tyrosine Kinase (BTK) Inhibition TR-FRET (Time Resolved FRET) competition assay
Type: binding
Conditions: Kinase Tracer 178, BTK-Eu, 18-24 h at 14° C.
Description: Bruton's Tyrosine Kinase (BTK) Inhibition TR-FRET (Time Resolved FRET) Assay
This BTK competition assay measures compound potency (IC50) for the inactivated state of Bruton's Tyrosine Kinase using FRET (Forster/Fluorescence Resonance Energy Transfer) technology. The BTK-Eu complex was incubated on ice one hour prior to use at a starting concentration of 50 nM BTK-Bioease™: 10 nM Eu-streptavidin (Perkin-Elmer Catalog# AD0062). The assay buffer consisted of 20 mM HEPES (pH 7.15), 0.1 mM DTT, 10 mM MgCl2, 0.5 mg/ml BSA with 3% Kinase Stabilizer (Fremont Biosolutions, Catalog # STB-K02). After 1 h, the reaction mixture from above was diluted 10 fold in assay buffer to make 5 nM BTK: 1 nM Eu-Streptavidin complex (donor fluorophore). 18 μl of a mixture of 0.11 nM BTK-Eu and 0.11 nM Kinase Tracer 178 (Invitrogen, Catalog # PV5593,) with BTK-Eu alone as no negative control, was then dispensed into 384-well flat bottom plates (Greiner, 784076). Compounds to be tested in assay were prepared as 10× concentrations and serial dilution in half-log increments was performed in DMSO so as to generate 10 point curves. To initiate the FRET reaction, compounds prepared as 10× stock in DMSO was added to the plates and the plates were incubated 18-24 h at 14° C.
After the incubation the plates were read on a BMG Pherastar Fluorescent plate reader (or equivalent) and used to measure the emission energy from the europium donor fluorophore (620 nm emission) and the FRET (665 nm emission). The negative control well values were averaged to obtain the mean minimum. The positive “no inhibitor” control wells were averaged to obtain the mean maximum. Percent of maximal FRET was calculated using following equation: % max FRET=100×[(FSRcmpd−FSRmean min)/(FSRmean max−FSRmean min)] where FSR=FRET Signal ratio. % Max FRET curves were plotted in Activity Base (Excel) and the IC50(%), hill slope, z′ and % CV were determined. The mean IC50 and standard deviation will be derived from duplicate curves (singlet inhibition curves from two independent dilutions) using Microsoft Excel.

Chain of Bruton's Tyrosine Kinase (BTK), inactivated state (Q06187 whole entry): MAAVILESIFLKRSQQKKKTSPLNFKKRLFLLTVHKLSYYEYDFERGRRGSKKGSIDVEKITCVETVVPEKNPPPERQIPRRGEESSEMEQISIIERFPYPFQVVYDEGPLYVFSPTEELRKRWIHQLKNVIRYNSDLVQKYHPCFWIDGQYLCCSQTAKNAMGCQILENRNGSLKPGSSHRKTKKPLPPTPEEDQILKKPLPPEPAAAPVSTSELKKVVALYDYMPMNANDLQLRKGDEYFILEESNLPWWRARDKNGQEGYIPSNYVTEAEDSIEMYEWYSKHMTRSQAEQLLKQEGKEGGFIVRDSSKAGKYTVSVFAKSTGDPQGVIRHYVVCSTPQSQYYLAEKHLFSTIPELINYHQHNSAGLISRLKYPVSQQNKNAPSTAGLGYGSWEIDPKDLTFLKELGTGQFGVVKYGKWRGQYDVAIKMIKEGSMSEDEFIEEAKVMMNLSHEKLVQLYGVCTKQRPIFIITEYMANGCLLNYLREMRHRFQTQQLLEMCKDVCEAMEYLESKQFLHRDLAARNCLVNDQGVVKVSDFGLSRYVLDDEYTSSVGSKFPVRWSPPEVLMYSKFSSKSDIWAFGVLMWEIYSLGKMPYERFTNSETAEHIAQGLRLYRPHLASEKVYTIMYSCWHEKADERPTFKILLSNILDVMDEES

| SMILES | IC50 [µM] |
| --- | --- |
| NC(=O)c1nc(N2CCC[C@@H](NC(=O)N3Cc4ccc(Cl)cc4C3)C2)sc1Nc1ccccn1 [Compound 2, 5-Chloro-1,3-dihydro-isoindole-2-carboxylic acid {(R)-1-[4-carbamoyl-5-(pyridin-2-ylamino)-thiazol-2-yl]-piperidin-3-yl}-amide] | 7.74 |
| CC(C)S(=O)(=O)N[C@@H]1CCCN(c2nc(C(N)=O)c(Nc3ccccn3)s2)C1 [Compound 10, 2-[(R)-3-(Propane-2-sulfonylamino)-piperidin-1-yl]-5-(pyridin-2-ylamino)-thiazole-4-carboxylic acid amide] | 5.8 |
| CS(=O)(=O)N[C@@H]1CCCN(c2nc(C(N)=O)c(Nc3ccccn3)s2)C1 [Compound 8, 2-((R)-3-Methanesulfonylamino-piperidin-1-yl)-5-(pyridin-2-ylamino)-thiazole-4-carboxylic acid amide] | 5.07 |
| CC(C)(C)c1ccc(C(=O)N[C@@H]2CCCN(c3nc(C(N)=O)c(Nc4ccccn4)s3)C2)cn1 [Compound 4, 6-tert-Butyl-N-{(R)-1-[4-carbamoyl-5-(pyridin-2-ylamino)-thiazol-2-yl]-piperidin-3-yl}-nicotinamide] | 1.73 |
| CC(C)(C)OC(=O)N[C@@H]1CCCN(c2nc(C(N)=O)c(Nc3ccccn3)s2)C1 [Compound 3, {(R)-1-[4-Carbamoyl-5-(pyridin-2-ylamino)-thiazol-2-yl]-piperidin-3-yl}-carbamic acid tert-butyl ester] | 1.21 |

Continued, values first:

| IC50 [µM] | SMILES |
| --- | --- |
| 6.03 | CC(=O)N[C@@H]1CCCN(c2nc(C(N)=O)c(Nc3ccccn3)s2)C1 [Compound 12, 2-((R)-3-Acetylamino-piperidin-1-yl)-5-(pyridin-2-ylamino)-thiazole-4-carboxylic acid amide] |
| 6.24 | NC(=O)c1nc(N2CCC[C@@H](NC(=O)Cc3ccccc3)C2)sc1Nc1ccccn1 [Compound 5, 2-((R)-3-Phenylacetylamino-piperidin-1-yl)-5-(pyridin-2-ylamino)-thiazole-4-carboxylic acid amide] |
| 1.61 | NC(=O)c1nc(N2CCC[C@@H](NS(=O)(=O)c3ccccc3)C2)sc1Nc1ccccn1 [Compound 9, 2-((R)-3-Benzenesulfonylamino-piperidin-1-yl)-5-(pyridin-2-ylamino)-thiazole-4-carboxylic acid amide] |
| 7.51 | Cc1cccc(CC(=O)N[C@@H]2CCCN(c3nc(C(N)=O)c(Nc4ccccn4)s3)C2)c1 [Compound 6, 5-(Pyridin-2-ylamino)-2-[(R)-3-(2-m-tolyl-acetylamino)-piperidin-1-yl]-thiazole-4-carboxylic acid amide] |
| 0.47 | CC(C)(C)c1ccc(C(=O)N[C@@H]2CCCN(c3nc(C(N)=O)c(Nc4ccccn4)s3)C2)cc1 [Compound 7, 2-[(R)-3-(4-tert-Butyl-benzoylamino)-piperidin-1-yl]-5-(pyridin-2-ylamino)-thiazole-4-carboxylic acid amide] |
